We go through 22 molecules from US11267812B2 (Mirati Therapeutics, Inc., priority 2016, dated 2022).

This assay relates to Phospho-ERK in NCI-H358 cells expressing KRas G12C. Description: Cellular inhibition of KRas G12C by Phospho-ERK measurement in NCI-H358 cells. It is filed as cell-based. Conditions: Homo sapiens; NCI-H358 cells, 3 hours compound treatment; read-out: IC50 (pERK(Thr202/Tyr204) normalized with GAPDH). The procedure: The cellular inhibition of KRAs G12C by exemplary compounds of the present invention was determined by measuring the amount of a downstream marker of KRas activity, phosphorylated ERK (“Phospho-ERK”).
NCI-H358 cells (ATCC CRL-5807) express KRas G12C and were grown in RPMI medium supplemented with 10% fetal bovine serum, penicillin/streptomycin and 10 mM HEPES. Cells were plated in poly-D-Lysine coated 96-well plates at a concentration of 50,000 cells/well and allowed to attach for 8-12 hours. Diluted compounds were then added at a final concentration of 0.5% DMSO. After 3 hours, the medium was removed, 150 μL of 4% formaldehyde was added and the plates were incubated for 20 minutes. The plates were washed with PBS, and permeabilized using 150 μL of ice cold 100% methanol for 10 minutes. Non-specific antibody binding to the plates was blocked using 100 μL Licor Blocking Buffer (Li-Cor Biotechnology, Lincoln Nebr.) for 1 hour at room temperature. Positive control samples and samples lacking cells were parallel processed with test samples as standards.
The amount Phospho-ERK was determined using an antibody specific for the phosphorylated form of ERK and compared to the amount of GAPDH. Primary antibodies used for detection were added as follows: Phospho-ERK (Cell Signaling cs9101) diluted 1:500 and GAPDH (Millipore MAB374) diluted 1:5000 in Licor block+0.05% Tween 20. The plates were incubated for 2 hours at room temperature. The plates were washed with PBS+0.05% Tween 20.
Secondary antibodies used to visualize primary antibodies were added as follows: Anti-rabbit-680 diluted 1:1000 and Anti-mouse-800 diluted 1:1000 in Licor Block+0.050 Tween 20 and incubated for 1 hour at room temperature. The plates were washed with PBS+0.05% o Tween 20. A100 L aliquot of PBS was added to each well and the plates were read on a LICOR AERIUS plate reader.
The pERK(Thr202/Tyr204) signal was normalized with the GAPDH signal and percent of DMSO control values were calculated. IC50 values were generated using a 4 parameter fit of the dose response curve. Key: “A”≥0.001-≤1 μM; “B”[…] and ND=not determined.
Take `C=CC(=O)N1CCN(c2nc(OC[C@H]3CCCN3C)nc3c2CCN(c2cc(O)cc4ccccc24)C3)[C@@H](C)C1` [Example 203, 1-((S)-4-(7-(3-hydroxynaphthalen-1-yl)-2-(((R)-1-methylpyrrolidin-2-yl)methoxy)-5,6,7,8-tetrahydropyrido[3,4-d]pyrimidin-4-yl)-3-methylpiperazin-1-yl)prop-2-en-1-one]: the IC50 lay in the range of 1 to 1000 nM.

On to `C=CC(=O)N1CCN(c2nc(OCC3CN(C)CCO3)nc3c2CCN(c2cc(O)cc4ccccc24)C3)CC1` (stereo not shown) [Example 193, 1-(4-(7-(3-hydroxynaphthalen-1-yl)-2-((4-methylmorpholin-2-yl)methoxy)-5,6,7,8-tetrahydropyrido[3,4-d]pyrimidin-4-yl)piperazin-1-yl)prop-2-en-1-one], for which the IC50 lay within 1 to 1000 nM.

Regarding `C=CC(=O)N1CCN(c2nc(OCCCN3CCCOCC3)nc3c2CCN(c2cc(O)cc4ccccc24)C3)CC1` [Example 101, 1-(4-(2-(3-(1,4-oxazepan-4-yl)propoxy)-7-(3-hydroxynaphthalen-1-yl)-5,6,7,8-tetrahydropyrido[3,4-d]pyrimidin-4-yl)piperazin-1-yl)prop-2-en-1-one], the IC50 is 1 to 1000 nM.

Regarding `C=CC(=O)N1CCN(c2nc(OCCCN3C[C@@H]4C[C@H]3CO4)nc3c2CCN(c2cc(O)cc4ccccc24)C3)CC1CC#N` (stereo partly drawn) [Example 153, 2-[4-[7-(3-hydroxy-1-naphthyl)-2-[3-[(1S,4S)-2-oxa-5-azabicyclo[2.2.1]heptan-5-yl]propoxy]-6,8-dihydro-5H-pyrido[3,4-d]pyrimidin-4-yl]-1-prop-2-enoyl-piperazin-2-yl]acetonitrile], the IC50 was in the range of 1 to 1000 nM.

`C=CC(=O)N1CCN(c2nc(OCCN3CCC[C@H](F)C3)nc3c2CCN(c2cc(O)cc4ccccc24)C3)CC1` [Example 111, (S)-1-(4-(2-(2-(3-fluoropiperidin-1-yl)ethoxy)-7-(3-hydroxynaphthalen-1-yl)-5,6,7,8-tetrahydropyrido[3,4-d]pyrimidin-4-yl)piperazin-1-yl)prop-2-en-1-one]: the IC50 fell in the range of 1 to 1000 nM.

Take `C=CC(=O)N1CCN(c2nc(OCCCN3CCOCC3)nc3c2CCN(c2cc(O)cc4ccccc24)C3)CC1` [Example 74, 1-(4-(7-(3-hydroxynaphthalen-1-yl)-2-(3-morpholinopropoxy)-5,6,7,8-tetrahydropyrido[3,4-d]pyrimidin-4-yl)piperazin-1-yl)prop-2-en-1-one]: the IC50 fell in the range of 1 to 1000 nM.

As to `C=CC(=O)N1CCN(c2nc(OC[C@@H]3CCCN3C)nc3c2CCN(c2c(C(F)(F)F)ccc4[nH]ncc24)C3)CC1` [Example 156, (S)-1-(4-(2-((1-methylpyrrolidin-2-yl)methoxy)-7-(5-(trifluoromethyl)-1H-indazol-4-yl)-5,6,7,8-tetrahydropyrido[3,4-d]pyrimidin-4-yl)piperazin-1-yl)prop-2-en-1-one], the IC50 fell in the range of 1 to 1000 nM.

On to `C=CC(=O)N1CCN(c2nc(OC[C@@H]3C[C@H](F)CN3C)nc3c2CCN(c2cccc4ccccc24)C3)CC1CC#N` (stereo partly drawn) [Example 221, 2-(1-acryloyl-4-(2-(((2S,4S)-4-fluoro-1-methylpyrrolidin-2-yl)methoxy)-7-(naphthalen-1-yl)-5,6,7,8-tetrahydropyrido[3,4-d]pyrimidin-4-yl)piperazin-2-yl)acetonitrile], for which the IC50 was 1 to 1000 nM.

On to `C=CC(=O)N1CCN(c2nc(OCCCN3CCCCC3)nc3c2CCN(c2cc(O)cc4ccccc24)C3)CC1` [Example 38, 1-(4-(7-(3-hydroxynaphthalen-1-yl)-2-(3-(piperidin-1-yl)propoxy)-5,6,7,8-tetrahydropyrido[3,4-d]pyrimidin-4-yl)piperazin-1-yl)prop-2-en-1-one], for which the IC50 was 1 to 1000 nM.

For the molecule `C=CC(=O)N1CCN(c2nc(OC[C@@H]3CCCCN3C)nc3c2CCN(c2cc(O)cc4ccccc24)C3)CC1` [Example 196, (S)-1-(4-(7-(3-hydroxynaphthalen-1-yl)-2-((1-methylpiperidin-2-yl)methoxy)-5,6,7,8-tetrahydropyrido[3,4-d]pyrimidin-4-yl)piperazin-1-yl)prop-2-en-1-one], the IC50 was in the range of 1 to 1000 nM.

`CN(C)C/C=C/C(=O)N1CCN(c2nc(OC[C@@H]3CCCN3C)nc3c2CCN(c2cccc4ccccc24)C3)C[C@@H]1CC#N` [Example 235, 2-((S)-1-((E)-4-(dimethylamino)but-2-enoyl)-4-(2-(((S)-1-methylpyrrolidin-2-yl)methoxy)-7-(naphthalen-1-yl)-5,6,7,8-tetrahydropyrido[3,4-d]pyrimidin-4-yl)piperazin-2-yl)acetonitrile]: the IC50 lay in the range of 1 to 1000 nM.

Consider `C=CC(=O)N1CCN(c2nc(OCCN(CC)CC)nc3c2CCN(c2cc(O)cc4ccccc24)C3)CC1` [Example 102], for which the IC50 was in the range of 1 to 1000 nM.

Turning to `C=CC(=O)N1CCN(c2nc(OCCCN3CCN(C)CC3)nc3c2CCN(c2cc(O)cc4ccccc24)C3)CC1` [Example 82, 1-(4-(7-(3-hydroxynaphthalen-1-yl)-2-(3-(4-methylpiperazin-1-yl)propoxy)-5,6,7,8-tetrahydropyrido[3,4-d]pyrimidin-4-yl)piperazin-1-yl)prop-2-en-1-one], the IC50 lay within 1 to 1000 nM.

In the case of `C=CC(=O)N1CCN(c2nc(OC[C@@H]3CCCN3C)nc3c2CCN(c2cccnc2C(F)(F)F)C3)CC1CC#N` (stereo partly drawn) [Example 226, 2-(1-acryloyl-4-(2-(((S)-1-methylpyrrolidin-2-yl)methoxy)-7-(2-(trifluoromethyl)pyridin-3-yl)-5,6,7,8-tetrahydropyrido[3,4-d]pyrimidin-4-yl)piperazin-2-yl)acetonitrile], the IC50 fell in the range of 1 to 1000 nM.

`C=CC(=O)N1CCN(c2nc(OC[C@@H]3CCCN3C)nc3c2CCN(c2cccc(F)c2C(F)(F)F)C3)CC1CC#N` (stereo partly drawn) [Example 230, 2-(1-acryloyl-4-(7-(3-fluoro-2-(trifluoromethyl)phenyl)-2-(((S)-1-methylpyrrolidin-2-yl)methoxy)-5,6,7,8-tetrahydropyrido[3,4-d]pyrimidin-4-yl)piperazin-2-yl)acetonitrile]: the IC50 is 1 to 1000 nM.

As for `C=CC(=O)N1CCN(c2nc(OC[C@@H]3CCCN3C)nc3c2CCN(c2ccccc2F)C3)CC1CC#N` (stereo partly drawn) [Example 227, 2-(1-acryloyl-4-(7-(2-fluorophenyl)-2-(((S)-1-methylpyrrolidin-2-yl)methoxy)-5,6,7,8-tetrahydropyrido[3,4-d]pyrimidin-4-yl)piperazin-2-yl)acetonitrile], the IC50 lay in the range of 1 to 1000 nM.

As to `C=CC(=O)N1CCN(c2nc(OC(C)CCN(C)C)nc3c2CCN(c2cc(O)cc4ccccc24)C3)CC1` (stereo not shown) [Example 21, 1-(4-(2-((4-(dimethylamino)butan-2-yl)oxy)-7-(3-hydroxynaphthalen-1-yl)-5,6,7,8-tetrahydropyrido[3,4-d]pyrimidin-4-yl)piperazin-1-yl)prop-2-en-1-one], the IC50 fell in the range of 1 to 1000 nM.

`C=CC(=O)N1CCN(c2nc(OCCN3CCCC[C@H]3C)nc3c2CCN(c2cc(O)cc4ccccc24)C3)CC1` [Example 97, (R)-1-(4-(7-(3-hydroxynaphthalen-1-yl)-2-(2-(2-methylpiperidin-1-yl)ethoxy)-5,6,7,8-tetrahydropyrido[3,4-d]pyrimidin-4-yl)piperazin-1-yl)prop-2-en-1-one]: the IC50 lay within 1 to 1000 nM.

As for `C=CC(=O)N1CCN(c2nc(OCCCCN(C)C)nc3c2CCN(c2cc(O)cc4ccccc24)C3)CC1` [Example 40, 1-(4-(2-(4-(dimethylamino)butoxy)-7-(3-hydroxynaphthalen-1-yl)-5,6,7,8-tetrahydropyrido[3,4-d]pyrimidin-4-yl)piperazin-1-yl)prop-2-en-1-one], the IC50 was 1 to 1000 nM.

For the molecule `C=CC(=O)N1CCN(c2nc(OCCN(C)C)nc3c2CCN(c2cc(O)cc4ccccc24)C3)[C@@H](C)C1` [Example 116, (S)-1-(4-(2-(2-(dimethylamino)ethoxy)-7-(3-hydroxynaphthalen-1-yl)-5,6,7,8-tetrahydropyrido[3,4-d]pyrimidin-4-yl)-3-methylpiperazin-1-yl)prop-2-en-1-one], the IC50 lay in the range of 1 to 1000 nM.

On to `C=CC(=O)N1CCN(c2nc(OC[C@@H]3CCN(C)C3)nc3c2CCN(c2cc(O)cc4ccccc24)C3)CC1` [Example 110, (R)-1-(4-(7-(3-hydroxynaphthalen-1-yl)-2-((1-methylpyrrolidin-3-yl)methoxy)-5,6,7,8-tetrahydropyrido[3,4-d]pyrimidin-4-yl)piperazin-1-yl)prop-2-en-1-one], for which the IC50 is 1 to 1000 nM.

As to `C=CC(=O)N1CCN(c2nc(OCC(CO)N(C)C)nc3c2CCN(c2cc(O)cc4ccccc24)C3)CC1` (stereo not shown) [Example 55, 1-(4-(2-(2-(dimethylamino)-3-hydroxypropoxy)-7-(3-hydroxynaphthalen-1-yl)-5,6,7,8-tetrahydropyrido[3,4-d]pyrimidin-4-yl)piperazin-1-yl)prop-2-en-1-one], the IC50 fell in the range of 1 to 1000 nM.
